Laboratory results from PMC8229129, “Local Colonic Administration of a Serine Protease Inhibitor Improves Post-Inflammatory Visceral Hypersensitivity in Rats” (Pharmaceutics, 2021).

What was measured:
[1] = Observation of side-effects after administration in pharmacokinetic experiments; assay type: in vivo; details: rats, within 180 min after administration (1 mg/kg i.v. or 5 mg/kg intracolonic)
Description: To evaluate the pharmacokinetic properties of UAMC-00050, it was administered in male Sprague–Dawley rats (200–225 g) either colonically (5 mg/kg, in a volume of 200 µL 5% DMSO solution) or intravenously (1 mg/kg in a volume of 200 µL 5% DMSO solution). Plasma samples were collected after 5, 15, 30, 45, 60, 90, 120, and 180 min via the tail vein and stored at −80 °C until analysis.

[2] = tested on: chymotrypsin-like activity in colonic tissue; assay: Chymotrypsin-like activity in colonic tissue after intracolonic administration (Suc-Ala-Ala-Pro-Phe-AMC); assay type: in vivo, Sprague–Dawley rats; details: post-colitis rats, 5 mg/kg intracolonic, colon harvested 90 min after administration, median (IQR), n = 12; vehicle 1.54 (1.06), p < 0.05
Description: The serine protease inhibitor UAMC-00050 (0.1–1.0–2.5–5.0 mg/kg, dissolved in a volume of 200 µL) or its vehicle (5% DMSO in H2O) was delivered colonically using a flexible catheter (18 G, length 4.5 cm) under short-lasting isoflurane anesthesia (5.0% induction, 1.5% maintenance). To prevent expulsion of the enema, animals were held in a Trendelenburg position for 90 s. Doses for intracolonic administration were based on the doses known to be effective via an i.p. administration and adapted afterwards based on preliminary results.
Trypsin-like, chymotrypsin-like, cathepsin G, elastase-like, and kallikrein activities were determined in colon tissue and fecal samples to profile serine protease activity. […]
Boc-Gln-Ala-Arg-AMC (75 µM) and n-Tosyl-Gly-Pro-Arg-AMC (100 µM) in 50 mM Tris-HCl pH 8.0 containing 120 mM NaCl were used to measure the trypsin-like activity. […] The fluorescence was measured during 20 min at 37 °C on a Tecan Infinite F200 Pro microtiter plate reader. The other activities were assessed in a similar assay, using the substrates mentioned below. Chymotrypsin-like and kallikrein activity were measured with Suc-Ala-Ala-Pro-Phe-AMC (0.45 mM) and H-Pro-Phe-Arg-AMC (0.45 mM), respectively. Elastase-like activity was measured using two assays, one using Suc-Ala-Ala-Pro-Val-AMC as a substrate and the other using Suc-Ala-Ala-Ala-AMC (both 0.45 mM). […]

[3] = tested on: thrombin; set-up: method as in PMID 29911328; details: in vitro; cited from earlier work
[4] = tested on: matriptase; set-up: method as in PMID 29911328; details: in vitro; cited from earlier work
[5] = tested on: tryptase; set-up: method as in PMID 29911328; details: in vitro; cited from earlier work
[6] = tested on: inflammatory parameters; set-up: method as in PMID 29911328; details: post-inflammatory model, intraperitoneal treatment; cited from earlier work
[7] = tested on: chronic colitis; set-up: method as in doi:10.1016/S0016-5085(16)33277-2; details: murine CD4+CD25−CD62L+ T-cell transfer model for chronic colitis; cited from earlier work

Compound: CC(=O)Nc1ccc(OP(=O)(Oc2ccc(NC(C)=O)cc2)C(Cc2ccc(N=C(N)N)cc2)NC(=O)OCc2ccccc2)cc1.Cl (stereo not shown) [UAMC-00050]
- Side-effects [1]: No side-effects
- Chymotrypsin-like activity in colonic tissue [2]: 0.84 (0.57) U/g
- inhibition of thrombin [3]: efficiently inhibits
- inhibition of matriptase [4]: efficiently inhibits
- inhibition of tryptase [5]: efficiently inhibits
- Effects on inflammatory parameters [6]: no effects
- Effect on inflammation [7]: anti-inflammatory effects
